# Test results published in publication PMC8588041, “Protective Role of Flavonoids against Intestinal Pro-Inflammatory Effects of Silver Nanoparticles” (Molecules, 2021).
# Read-outs that look alike come from different tables or passages of the source.
# Columns and labels:
# [1] = test system: Caco-2 cell line; test: Nitrite measurement by Griess reaction (•NO production); assay type: cell-based, human; conditions: for Prevention of AgNP-induced •NO production: flavonoids at maximum non-cytotoxic concentrations, Caco-2, 24 h, data not shown
# Description: Nitrite measurement was based on the colorimetric detection of the reaction product of nitrite with naphthylethylenediamine dihydrochloride. The concentration of nitrite, which reflects nitric oxide (^•NO) production, was measured in the cell-free supernatants collected from the Caco-2 cell line. […] After the incubation period, 150 μL of culture medium was collected and placed in 96-well plates. […] The absorbance was measured at 570 nm using an automatic plate reader.
# [2] = test system: human neutrophils; test: Neutrophil viability, PI staining flow cytometry; assay type: cell-based; conditions: PEI 10 μg/mL, AgNO3 3 μg/mL, data not shown
# Description: Following exposure, cells were centrifuged (400× g at 20 °C, during 5 min) and the supernatant was discarded. The pellet was resuspended in DPBS solution and centrifuged (200g at 20 °C, during 5 min). After centrifugation, the pellet was resuspended with 100 μL propidium iodide solution (1 µg/mL) and incubated for 15 min in the dark. After this time, 400 μL of DPBS buffer was added and the fluorescence was measured in flow cytometer. To restrict the analysis to neutrophils only, a polygon gate was set according to their light scattering properties (in a forward vs. side scatter plot) excluding cell debris and other blood cells. Fluorescence signals for at least 10,000 cells were collected in logarithmic mode and the data were analyzed using C Flow (Accuri®) software (BD, Becton, Dickinson and Company, Franklin Lakes, NJ, USA).
# [3] = test system: Caco-2 cell line; test: Annexin V-FITC versus propidium iodide flow cytometry (cell death); conditions: for Apoptosis-preventive effect (apoptotic population versus AgNP controls): flavonoid 25 μM co-incubated 24 h with 4 nm and 19 nm AgNP 20 µg/mL, Caco-2
# Description: The evaluation of cell death was analyzed by flow cytometry, following simultaneous staining with propidium iodide (PI) and Annexin V labeled with fluorescein isothiocyanate (FITC), according to a previously described method, using the Annexin V-FITC Apoptosis Detection Kit. Briefly, 5 × 10^5 cells/well were seeded in 6 well plates and exposed to 20 μg/mL AgNP (4 and 19 nm) and/or to the flavonoids quercetin or quercetagetin (25 μM) for 24 h. […] After the 24 h exposure, cell supernatants were discarded, and cells were washed with DPBS buffer and detached from cells plates with trypsin:EDTA solution. Individualized cells were counted in a Neubauer chamber, and after DPBS wash, cells were resuspended at a density of 1 × 10^6 cells/mL binding buffer provided by the kit. Subsequently, 1 × 10^5 cells were transferred to suitable cytometry tubes, and Annexin V-FITC and PI were added. The mixture was incubated for 15 min and at least 10,000 events were immediately read in a BD Accuri™ C6 Plus Flow Cytometer (BD biosciences, Becton, Franklin Lakes, NJ, USA). The green fluorescence corresponding to Annexin-V conjugated with FITC was followed in channel 1 (FL1) and plotted as a histogram of FL1 staining. Fluorescence due to the PI incorporation was followed in channel 3 (FL3).
# [4] = test system: human neutrophils; test: Neutrophil oxidative burst, DHR oxidation; conditions: for Effect of inhibitors on AgNP-induced DHR oxidation: DPI 10 µM, VAS2870 25 µM, Gö6983 1 µM, added with AgNP 10 µg/mL (4 nm and 19 nm); for Percentage of inhibition at the highest tested concentration: 25 μM flavonoid
# Description: All patient-related procedures and protocols were performed in accordance with the Declaration of Helsinki and approved by the Ethics Committee of Centro Hospitalar do Porto. After written informed consent was obtained, venous blood from healthy human volunteers was collected by antecubital phlebotomy into vacuum tubes with K3EDTA. The isolation of human neutrophils was performed by the density gradient centrifugation method, as previously reported by our research group. Cells were resuspended in Tris buffer (25 mM Tris, 1.26 mM CaCl2, 5.37 mM KCl, 0.81 mM MgSO4, 140 mM NaCl and 5.55 mM D-Glucose) and the cell viability and cell yield (number of cells/mL) were determined by the trypan blue exclusion method using a Neubauer chamber.
# The measurement of neutrophil oxidative burst was performed by monitoring the oxidation of DHR, by neutrophil-generated reactive species. Neutrophils (3 × 10^6 cells/mL) were incubated in a humidified incubator, at 37 °C, with 4 nm or 19 nm AgNP (0–10 µg/mL) alone or with flavonoids (0–25 µM) followed by DHR (10 µM) for 1 h 30 min.
# The NADPH oxidase inhibitors, DPI (10 µM) and VAS2870 (25 µM), and the protein kinase C (PKC) inhibitor, Gö6983 (1 µM), were also tested, by their concomitant addition with AgNP (10 µg/mL). The fluorescence was measured in a microplate reader (λexcitation = 507 ± 20 nm/λemmission = 529 ± 20 nm).
# [5] = test system: Caco-2 cell line; test: MTT reduction assay, cytotoxicity in Caco-2 cells; conditions: for Selected Maximum Concentration (maximum non-cytotoxic flavonoid concentration): Caco-2 cells, 24 h, MTT assay, tested 3.13 to 50 μM; for Protection against AgNP-induced cytotoxicity: 24 h co-incubation with 20 or 50 μg/mL AgNP (4 and 19 nm), non-toxic flavonoid concentrations (quercetagetin 50 µM)
# Description: Cells were grown in a 5% CO2 atmosphere at 37 °C. For each experiment, the cells were used when reaching 80% of confluence, which represented 3 to 5 days of differentiation. Then, the proliferating Caco-2 cells were treated 24 h after seeding.
# The MTT reduction assay was used to determine the cytotoxicity of PEI coated-AgNP of two sizes (4 and 19 nm) in the Caco-2 cell line. […] After the exposure period, the culture medium was replaced with fresh medium containing 0.5 mg/mL MTT and the cells were further incubated for 2 h. The resulting dark purple crystals of formazan were then dissolved in DMSO and the absorbance of the corresponding solution, which was directly proportional to the number of living cells, was measured in an automatic plate reader set at a test wavelength of 570 nm and a reference wavelength of 620 nm.
# [6] = test system: Caco-2 cells; conditions: cited from earlier work
# [7] = Homo sapiens, Neutrophil, read-out: IC50 (Mean ± SEM), inhibition of AgNP 4 nm-induced oxidative burst, AgNP 4 nm, human neutrophils, DHR
# [8] = Homo sapiens, Neutrophil, read-out: IC50 (Mean ± SEM), inhibition of AgNP 19 nm-induced oxidative burst, AgNP 19 nm, human neutrophils, DHR
# [9] = read-out: IC50 (Mean ± SEM), inhibition of AgNP 4 nm-induced oxidative burst, AgNP 4 nm, human neutrophils, DHR
compound,measurement,setting,value
"O=[N+]([O-])[O-].[Ag+] [AgNO3, Silver nitrate, reference compound]",•NO production,"[1]; 9 μg/mL AgNO3, 24 h, Caco-2",induced a significant production of ^•NO
same,Neutrophil viability,[2],did not affect neutrophil viability
same,Cell viability (Annexin V/PI),"[3]; PEI 20 μg/mL, AgNO3 4.5 μg/mL, Caco-2, 24 h, data not shown",did not induce significant alterations in cell viability
same,Neutrophil oxidative burst,"[4]; PEI 10 μg/mL, AgNO3 3 μg/mL, data not shown",did not affect neutrophil oxidative burst
"c1ccc2c(c1)[I+]c1ccccc1-2 [DPI, diphenyleneiodonium chloride, reference compound]",Effect of inhibitors on AgNP-induced DHR oxidation,[4],decreased DHR oxidation induced by 4nm and 19 nm AgNP
COc1ccc(-c2cc(=O)c3c(O)cc(O)cc3o2)cc1O [Diosmetin],Percentage of inhibition at the highest tested concentration,"[4]; AgNP 4 nm, human neutrophils, DHR",37 ± 3 %
same,Percentage of inhibition at the highest tested concentration,"[4]; AgNP 19 nm, human neutrophils, DHR",37 ± 7 %
same,IC50,"[4]; Homo sapiens, Neutrophil, read-out: IC50, inhibition of AgNP-induced neutrophil oxidative burst, AgNP of 4 and 19 nm, human neutrophils, DHR",> 25000 nM
O=c1c(O)c(-c2ccc(O)c(O)c2)oc2c(O)c(O)cc(O)c12 [Gossypetin],IC50,"[4]; Homo sapiens, Neutrophil, read-out: IC50 (Mean ± SEM), inhibition of AgNP 4 nm-induced oxidative burst",2100 ± 300 nM
same,IC50,"[4]; Homo sapiens, Neutrophil, read-out: IC50 (Mean ± SEM), inhibition of AgNP 19 nm-induced oxidative burst",4500 ± 1200 nM
"COc1ccc2c(c1)c(C1=C(c3c[nH]c4ccccc34)C(=O)NC1=O)cn2CCCN(C)C [Gö6983, 3-[1-[3-(dimethylamino)propyl]-5-methoxy-1H-indol-3-yl]-4-(1H-indol-3-yl)-1H-pyrrole-2,5-dione, reference compound]",Effect of inhibitors on AgNP-induced DHR oxidation,[4],prevented the activation of neutrophil oxidative burst induced by AgNP
O=c1cc(-c2ccc(O)c(O)c2)oc2cc(O)cc(O)c12 [Luteolin],Selected Maximum Concentration (maximum non-cytotoxic flavonoid concentration),[5],12.5 µM
same,IC50,[4]; [7],1300 ± 200 nM
same,IC50,[4]; [8],1300 ± 200 nM
O=c1c(O)c(-c2ccc(O)cc2O)oc2cc(O)cc(O)c12 [Morin],Selected Maximum Concentration (maximum non-cytotoxic flavonoid concentration),[5],50.0 µM
same,IC50,[4]; [7],1400 ± 400 nM
same,IC50,[4]; [8],1500 ± 400 nM
O=c1c(O)c(-c2cc(O)c(O)c(O)c2)oc2cc(O)cc(O)c12 [Myricetin],Selected Maximum Concentration (maximum non-cytotoxic flavonoid concentration),[5],50.0 µM
same,IC50,[4]; [7],2300 ± 100 nM
same,IC50,[4]; [8],3100 ± 200 nM
O=c1c(O)c(-c2ccc(O)c(O)c2)oc2cc(O)c(O)c(O)c12 [Quercetagetin],Prevention of AgNP-induced •NO production,[1],neither quercetin nor quercetagetin prevented AgNP-induced ^•NO production
same,Percentage of apoptotic cells on co-treatment,"[3]; co-treatment with 4 nm AgNP (20 μg/mL), Caco-2, 24 h",increased the percentage of apoptotic cells
same,Apoptosis-preventive effect (apoptotic population versus AgNP controls),[3],did not significantly decrease the apoptotic population
same,Protection against AgNP-induced cytotoxicity,[5],prevented the cytotoxic effects of the two sizes of AgNP
same,Protection against AgNP-induced cytotoxicity,[5]; listed as quercetagetin,significantly reduced the cell death induced by AgNP of 4 and 19 nm
same,Selected Maximum Concentration (maximum non-cytotoxic flavonoid concentration),[5],50.0 µM
same,IC50,[4]; [7],< 1000 nM
same,IC50,[4]; [8],3000 ± 200 nM
same,IC50,[4]; [9],530 ± 60 nM
O=c1c(O)c(-c2ccc(O)c(O)c2)oc2cc(O)cc(O)c12 [Quercetin],Prevention of AgNP-induced •NO production,[1],neither quercetin nor quercetagetin prevented AgNP-induced ^•NO production
same,Apoptosis-preventive effect (apoptotic population versus AgNP controls),[3],reversed the pro-apoptotic effect of AgNP
same,Protection against AgNP-induced cytotoxicity,[5],partially prevented AgNP cytotoxicity
same,Protection against AgNP-induced cytotoxicity,[5]; listed as quercetin,significantly reduced the cell death induced by AgNP of 4 and 19 nm
same,Selected Maximum Concentration (maximum non-cytotoxic flavonoid concentration),[5],25.0 µM
same,Reversal of loss of viability induced by AgNP,"[6]; 10 and 50 µM, Caco-2 cells treated with AgNP < 20 nm (30–90 μg/mL)",most effectively reversed the loss of viability induced by AgNP
same,Reversal of toxicity induced by AgNP,"[6]; quercetin 50 µM, AgNP ≥45 μg/mL, ref Martirosyan et al.",successfully reverted the toxicity induced by AgNP
same,IC50,[4]; [7],< 1000 nM
same,IC50,[4]; [8],3100 ± 600 nM
same,IC50,[4]; [9],940 ± 90 nM
"c1ccc(Cn2nnc3c(Sc4nc5ccccc5o4)ncnc32)cc1 [VAS2870, reference compound]",Effect of inhibitors on AgNP-induced DHR oxidation,[4],decreased DHR oxidation induced by 4nm and 19 nm AgNP
